Test results published in ChEMBL document CHEMBL1201862, “PubChem BioAssay data set” (2004).
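Five concentrations, 48 hours, 96-well plates. Abbreviation: GI50, concentration required for 50% inhibition of growth.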 The source made the active and inactive calls. No stated cut-off is given here; in the data, active = GI50 up to about 1.1 µM and inactive = higher.

What was measured:
Test in all cases: NCI anticancer screen, dose series, 48 h
Malme-3M = system: Malme-3M
HCT-116 = system: HCT-116
EKVX = system: EKVX
K562 = system: K562
786-0 = system: 786-0
HT-29 = system: HT-29
A549 = system: A549
MOLT-4 = system: MOLT-4
KM-20L2 = system: KM-20L2
SK-MEL-28 = system: SK-MEL-28
ACHN = system: ACHN
UO-31 = system: UO-31
UACC-62 = system: UACC-62
SK-MEL-2 = system: SK-MEL-2
OVCAR-3 = system: OVCAR-3
NCI/ADR-RES = system: NCI/ADR-RES
Hs-578T = system: Hs-578T
HOP-92 = system: HOP-92
MDA-N = system: MDA-N
DU-145 = system: DU-145

Row | SMILES | GI50 (Malme-3M) | GI50 (HCT-116) | GI50 (EKVX) | GI50 (K562) | GI50 (786-0) | GI50 (HT-29) | GI50 (A549) | GI50 (MOLT-4) | GI50 (KM-20L2) | GI50 (SK-MEL-28) | GI50 (ACHN) | GI50 (UO-31) | GI50 (UACC-62) | GI50 (SK-MEL-2) | GI50 (OVCAR-3) | GI50 (NCI/ADR-RES) | GI50 (Hs-578T) | GI50 (HOP-92) | GI50 (MDA-N) | GI50 (DU-145)
1 | FC(F)(F)P1C2C=CC(CC2)C1(F)F (configuration not stated) | > 100 µM (inactive) | > 100 µM (inactive) | > 100 µM (inactive) | > 100 µM (inactive) | > 100 µM (inactive) | > 100 µM (inactive) | > 100 µM (inactive) | > 100 µM (inactive) | > 100 µM (inactive) | > 100 µM (inactive) | > 100 µM (inactive) | > 100 µM (inactive) | > 100 µM (inactive) | > 100 µM (inactive) | – | – | – | – | – | –
2 | O=C(c1ccccc1)c1ccc2cccc(O)c2n1 | 36.1 µM (inactive) | 6.14 µM (inactive) | 24.4 µM (inactive) | 9.23 µM (inactive) | 15.8 µM (inactive) | – | 33 µM (inactive) | 5.27 µM (inactive) | 35.6 µM (inactive) | 29.3 µM (inactive) | 37.5 µM (inactive) | 34.4 µM (inactive) | 33.1 µM (inactive) | 47.6 µM (inactive) | 50.8 µM (inactive) | – | – | – | – | –
3 | O=[N+]([O-])c1ccc(C2=Nc3ccccc3[S+]([O-])C(c3ccccc3)C2)cc1 (configuration not stated) | 44.8 µM (inactive) | – | 22.4 µM (inactive) | 10.9 µM (inactive) | 17.5 µM (inactive) | 19.1 µM (inactive) | 27.9 µM (inactive) | 16.6 µM (inactive) | 23.7 µM (inactive) | 20 µM (inactive) | 21.4 µM (inactive) | 16.7 µM (inactive) | 13.6 µM (inactive) | 34.7 µM (inactive) | 17.5 µM (inactive) | – | – | – | – | –
4 | O=c1[nH]c(=O)n(COC(CO)CO)cc1-c1ccccc1 | > 100 µM (inactive) | > 100 µM (inactive) | > 100 µM (inactive) | > 100 µM (inactive) | > 100 µM (inactive) | > 100 µM (inactive) | > 100 µM (inactive) | > 100 µM (inactive) | – | > 100 µM (inactive) | > 100 µM (inactive) | > 100 µM (inactive) | > 100 µM (inactive) | > 100 µM (inactive) | > 100 µM (inactive) | > 100 µM (inactive) | > 100 µM (inactive) | > 100 µM (inactive) | > 100 µM (inactive) | > 100 µM (inactive)
5 | COC(=O)/C=C(\S/C(=N\n1cc(C(=O)OC)c(C(=O)OC)c1-c1ccc(C)cc1)c1ccc(C)cc1)C(=O)OC | 6.52 µM (inactive) | 1.97 µM (inactive) | 15.7 µM (inactive) | 1.43 µM (inactive) | 4.44 µM (inactive) | 4.91 µM (inactive) | 18.7 µM (inactive) | 4.26 µM (inactive) | – | 5.78 µM (inactive) | 2.34 µM (inactive) | 2.52 µM (inactive) | 12 µM (inactive) | 6.12 µM (inactive) | 4.67 µM (inactive) | 6.87 µM (inactive) | 18.4 µM (inactive) | 2.8 µM (inactive) | 5.79 µM (inactive) | 6.78 µM (inactive)
6 | Cc1cc2sc(C)[n+](CCCOS(=O)(=O)[O-])c2cc1C | 79.6 µM (inactive) | > 100 µM (inactive) | > 100 µM (inactive) | 63.4 µM (inactive) | > 100 µM (inactive) | > 100 µM (inactive) | > 100 µM (inactive) | 72.4 µM (inactive) | – | > 100 µM (inactive) | > 100 µM (inactive) | > 100 µM (inactive) | > 100 µM (inactive) | > 100 µM (inactive) | > 100 µM (inactive) | > 100 µM (inactive) | 27.9 µM (inactive) | > 100 µM (inactive) | > 100 µM (inactive) | > 100 µM (inactive)
7 | O=C(O)C1CCCN1Cc1cc2ccccc2c2ccccc12 (configuration not stated) | > 100 µM (inactive) | > 100 µM (inactive) | > 100 µM (inactive) | 40.1 µM (inactive) | > 100 µM (inactive) | > 100 µM (inactive) | > 100 µM (inactive) | > 100 µM (inactive) | – | > 100 µM (inactive) | > 100 µM (inactive) | > 100 µM (inactive) | > 100 µM (inactive) | > 100 µM (inactive) | > 100 µM (inactive) | > 100 µM (inactive) | > 100 µM (inactive) | > 100 µM (inactive) | > 100 µM (inactive) | > 100 µM (inactive)
8 | CC(C(=O)ON1C(=O)CCC1=O)c1ccc(C(=O)c2ccccc2)s1 (configuration not stated) | > 100 µM (inactive) | > 100 µM (inactive) | > 100 µM (inactive) | > 100 µM (inactive) | > 100 µM (inactive) | > 100 µM (inactive) | > 100 µM (inactive) | > 100 µM (inactive) | – | > 100 µM (inactive) | > 100 µM (inactive) | > 100 µM (inactive) | > 100 µM (inactive) | > 100 µM (inactive) | > 100 µM (inactive) | > 100 µM (inactive) | > 100 µM (inactive) | > 100 µM (inactive) | > 100 µM (inactive) | > 100 µM (inactive)
9 | CC1(C)OCC2OC(n3cnc4c(N)nc(Cl)nc43)C(OS(C)(=O)=O)C2O1 (configuration not stated) | > 100 µM (inactive) | > 100 µM (inactive) | > 100 µM (inactive) | > 100 µM (inactive) | > 100 µM (inactive) | > 100 µM (inactive) | > 100 µM (inactive) | 48.2 µM (inactive) | – | > 100 µM (inactive) | > 100 µM (inactive) | > 100 µM (inactive) | > 100 µM (inactive) | > 100 µM (inactive) | > 100 µM (inactive) | > 100 µM (inactive) | > 100 µM (inactive) | 45.3 µM (inactive) | > 100 µM (inactive) | > 100 µM (inactive)
10 | O=C(/C=C(\O)C(=O)O)/C=C(\O)c1ccccc1 | – | > 4.65 µM (inactive) | > 4.65 µM (inactive) | > 4.65 µM (inactive) | > 100 µM (inactive) | > 4.65 µM (inactive) | > 4.65 µM (inactive) | > 100 µM (inactive) | > 4.65 µM (inactive) | – | > 4.65 µM (inactive) | – | > 4.65 µM (inactive) | > 4.65 µM (inactive) | > 4.65 µM (inactive) | – | – | – | – | –
11 | CN1C(c2ccccc2)=CC(=O)C(O)=C(c2ccccc2)S1(=O)=O | > 100 µM (inactive) | > 100 µM (inactive) | > 100 µM (inactive) | > 100 µM (inactive) | > 100 µM (inactive) | > 100 µM (inactive) | > 100 µM (inactive) | > 100 µM (inactive) | – | > 100 µM (inactive) | > 100 µM (inactive) | > 100 µM (inactive) | > 100 µM (inactive) | > 100 µM (inactive) | > 100 µM (inactive) | > 100 µM (inactive) | > 100 µM (inactive) | > 100 µM (inactive) | > 100 µM (inactive) | > 100 µM (inactive)
12 | Clc1ccc(Cc2nc3ccccc3s2)c(Cl)c1 | 16.9 µM (inactive) | – | 23.6 µM (inactive) | 14.8 µM (inactive) | 14.6 µM (inactive) | 20.6 µM (inactive) | 19.7 µM (inactive) | 14.3 µM (inactive) | 25.6 µM (inactive) | 18.3 µM (inactive) | 17.5 µM (inactive) | 16.4 µM (inactive) | 14.1 µM (inactive) | 16.4 µM (inactive) | 18.6 µM (inactive) | – | – | – | – | –
13 | CCOC(=O)c1sc2[n+](c1C)C(=O)/C(=C/c1ccccc1Cl)S2 | 11 µM (inactive) | 0.627 µM (active) | 3.21 µM (inactive) | 0.505 µM (active) | 0.618 µM (active) | 3.44 µM (inactive) | 0.9 µM (active) | 3.33 µM (inactive) | – | 9.75 µM (inactive) | 1.53 µM (inactive) | 0.684 µM (active) | 0.447 µM (active) | 9.35 µM (inactive) | 0.891 µM (active) | 0.342 µM (active) | 0.822 µM (active) | 5.9 µM (inactive) | 0.259 µM (active) | 1.85 µM (inactive)
14 | CCOC(=O)CCCNC(=O)CCCCC(=O)N(C)C | > 100 µM (inactive) | > 100 µM (inactive) | > 100 µM (inactive) | > 100 µM (inactive) | > 100 µM (inactive) | > 100 µM (inactive) | > 100 µM (inactive) | > 100 µM (inactive) | – | > 100 µM (inactive) | > 100 µM (inactive) | > 100 µM (inactive) | > 100 µM (inactive) | > 100 µM (inactive) | > 100 µM (inactive) | > 100 µM (inactive) | > 100 µM (inactive) | > 100 µM (inactive) | > 100 µM (inactive) | > 100 µM (inactive)
15 | O=C(Cc1nc2ccccc2s1)Nc1cccc(C(F)(F)F)c1 | 16.6 µM (inactive) | – | 22.2 µM (inactive) | 9.16 µM (inactive) | 14.2 µM (inactive) | 17.1 µM (inactive) | 21 µM (inactive) | 6.89 µM (inactive) | 20.4 µM (inactive) | 15 µM (inactive) | 13.6 µM (inactive) | 14.5 µM (inactive) | 12.6 µM (inactive) | 18.5 µM (inactive) | 17.6 µM (inactive) | – | – | – | – | –
16 | O=C(CC(O)(C(F)(F)Cl)C(F)(F)Cl)CC(O)(C(F)(F)Cl)C(F)(F)Cl | 0.483 µM (active) | 1.19 µM (inactive) | 1.21 µM (inactive) | 0.843 µM (active) | 2.89 µM (inactive) | 1.65 µM (inactive) | 1.73 µM (inactive) | 2.14 µM (inactive) | – | 1.95 µM (inactive) | 0.927 µM (active) | 0.929 µM (active) | 0.738 µM (active) | 1.13 µM (inactive) | 1.12 µM (inactive) | 2.06 µM (inactive) | 1.92 µM (inactive) | 0.75 µM (active) | 3.49 µM (inactive) | 0.515 µM (active)
